Laboratory results taken from patent publication US20040076968A1, “Method for detecting pre-disposition to hepatotoxicity” (priority 2000, published 2004).

Assays:
[1] = system: rat hepatotocyte cultures; test: Cytotoxicity in rat hepatocyte cultures; assay type: cell-based; settings: in vitro
UGT1A7 gene = test: Association of UGT1A7 polymorphisms with liver function abnormality in tolcapone-treated patients (case-control genotyping); assay type: in vivo, human
Excerpt: Disease severity had already been controlled for by the original study inclusion criteria.
For all other single nucleotide polymorphisms (SNPs) discovery and genotyping was done by double-stranded DNA sequencing using an ABI capillary sequencer and Big Dye chemistry (ABI). The primers used to amplify all exons are shown below and were also used as sequencing primers. Publicly available genomic sequences were used as references for primer design. All polymorphisms were targeted with these pairs-of-primer sets:
Fourty nanograms of genomic DNA were PCR-amplified in 50 μl reactions using an automated PCR machine. Reaction conditions varied as follows. For the amplification of the UGT1A6-fragment conditions were as follows: 10 mM Tris pH 8.3, 50 mM KCl, 1.5 mM MgCl2, 0.2 mM of each dNTP, 0.4 μM of each primer and 1.5U Boehringer Taq Polymerase. The thermocycling protocol consisted of an initial incubation of 95° C. for 15 min. followed by 35 cycles of 94° C. for 1 min., 57° C. for 30 sec., 72° C. for 1 min., and one final extension step of 72° C. for 10 min. The UGT1A7-1 fragment was amplified using Qiagen PCR buffer with 1.5 mM MgCl2, 0.2 mM of each dNTP, 0.4 μM of each primer and 1.5U Boehringer Taq Polymerase. The thermocycling protocol was the same as for UGT1A6-fragment with one exception: the annealing temperature was 61° C. For UGT1A7-2 fragment PCR conditions were as follows: 150 mM Tris pH 8.5, 15 mM (NH4)2SO4, 3.5 mM MgCl2, 0.2 mM of each dNTP, 0.4 μM of each primer and 1.5U Qiagen Hot Start Taq Polymerase. Thermocycling was done using a touch-down PCR protocol. After an iniatial amplification of 95° C. for 10 min. followed 5 cycles of 95° C. for 1 min., 62° C. for 30 sec. (minus 0.5° C. per cycle), 72° C. for 1 min and thirty cycles of 95° C. for 1 min., 60° C. for 30 sec., 72° C. for 1 min. and a final extension step of 72° C. for 10 min. After PCR amplification fragments were purified using the Qiaquick PCR purification kit on a Biorobot 9600. Cycle sequencing was performed on an automated PCR machine using ABI Big Dye terminator chemistry according to the manufacturer's intruction with the following changes: 2.5-5 ng/100 bp of PCR product were mixed with 2 μl Big Dye terminatior mix, oligonucleotide primer concentration was 10 pmol, if necessary 5% DMSO was added to the reaction; the final reaction volume was 10 μl. Sequencing reactions were subjected to 28 cycles at 93° C. for 30 sec, 48° C. for 30 sec, and 58° C. for 120 sec., followed by an ethanol/NaOAc precipitation. After decanting the ethanol, samples were evaporated to dryness using a SpeedVac for 2 min. and were resuspended in 45 μl ultrapure water (MERCK, HPLC grade). […] were loaded on an ABI 3700 capillary sequencer using POP5 as a polymer. After sequencing, the polymorphism analyses were done using Polyphred software (licenced from University of Washington).
The patient samples were divided into two groups.
For each genotype, the following analyses were performed:
a) Analysis of the entire genotype: patients were classified according to the following three categories: homozygous 1/1 (two copies of allele 1 and no copies of allele 2), heterozygous 1/2 (one copy of allele 1 and one copy of allele 2) or homozygous 2/2 (no copies of allele 1 and two copies of allele 2). Analysis was conducted to assess whether there were differences in the proportion of case patients in each of these groups, compared with the proportion of control patients. The Cochran-Maentel-Hanszel (CMH) test was applied to the data presented in a 2-by-3 table (the two columns indicating presence or absence of liver function abnormality and the three rows indicating the three categories of the genotype).

Cc1ccc(C(=O)c2cc(O)c(O)c([N+](=O)[O-])c2)cc1 [tolcapone]
cytotoxicity on inhibition of glucuronidation and oxidation [1]: increase cytotoxicity
n (%) of patients (UGT1A7 gene; UGT1A7_197 C/G, Allele A Absent, Liver Function Abnormality Absent): 125 (46.5%)
n (%) of patients (UGT1A7 gene; UGT1A7_197 C/G, Allele A Absent, Liver Function Abnormality Present): 46 (34.6%)
n (%) of patients (UGT1A7 gene; UGT1A7_197 C/G, Allele A Present, Liver Function Abnormality Absent): 144 (53.5%)
n (%) of patients (UGT1A7 gene; UGT1A7_197 C/G, Allele A Present, Liver Function Abnormality Present): 87 (65.4%)
n (%) of patients (UGT1A7 gene; UGT1A7_197 C/G, Allele C Absent, Liver Function Abnormality Absent): 32 (11.9%)
n (%) of patients (UGT1A7 gene; UGT1A7_197 C/G, Allele C Absent, Liver Function Abnormality Present): 25 (18.8%)
n (%) of patients (UGT1A7 gene; UGT1A7_197 C/G, Allele C Present, Liver Function Abnormality Absent): 237 (88.1%)
n (%) of patients (UGT1A7 gene; UGT1A7_197 C/G, Allele C Present, Liver Function Abnormality Present): 108 (81.2%)
n (%) of patients (UGT1A7 gene; UGT1A7_197 C/G, Genotype Heterozygous A/C, Liver Function Abnormality Absent): 112 (41.6%)
n (%) of patients (UGT1A7 gene; UGT1A7_197 C/G, Genotype Heterozygous A/C, Liver Function Abnormality Present): 62 (46.6%)
n (%) of patients (UGT1A7 gene; UGT1A7_197 C/G, Genotype Homozygous A/A, Liver Function Abnormality Absent): 32 (11.9%)
n (%) of patients (UGT1A7 gene; UGT1A7_197 C/G, Genotype Homozygous A/A, Liver Function Abnormality Present): 25 (18.8%)
n (%) of patients (UGT1A7 gene; UGT1A7_197 C/G, Genotype Homozygous C/C, Liver Function Abnormality Absent): 125 (46.5%)
n (%) of patients (UGT1A7 gene; UGT1A7_197 C/G, Genotype Homozygous C/C, Liver Function Abnormality Present): 46 (34.6%)
n (%) of patients (UGT1A7 gene; UGT1A7_551 Asn129Lys, Allele G Absent, Liver Function Abnormality Absent): 49 (18.2%)
n (%) of patients (UGT1A7 gene; UGT1A7_551 Asn129Lys, Allele G Absent, Liver Function Abnormality Present): 14 (10.6%)
n (%) of patients (UGT1A7 gene; UGT1A7_551 Asn129Lys, Allele G Present, Liver Function Abnormality Absent): 220 (81.8%)
n (%) of patients (UGT1A7 gene; UGT1A7_551 Asn129Lys, Allele G Present, Liver Function Abnormality Present): 118 (89.4%)
n (%) of patients (UGT1A7 gene; UGT1A7_551 Asn129Lys, Allele T Absent, Liver Function Abnormality Absent): 96 (35.7%)
n (%) of patients (UGT1A7 gene; UGT1A7_551 Asn129Lys, Allele T Absent, Liver Function Abnormality Present): 59 (44.7%)
n (%) of patients (UGT1A7 gene; UGT1A7_551 Asn129Lys, Allele T Present, Liver Function Abnormality Absent): 173 (64.3%)
n (%) of patients (UGT1A7 gene; UGT1A7_551 Asn129Lys, Genotype Heterozygous G/T, Liver Function Abnormality Absent): 124 (46.1%)
n (%) of patients (UGT1A7 gene; UGT1A7_551 Asn129Lys, Genotype Heterozygous G/T, Liver Function Abnormality Present): 59 (44.7%)
n (%) of patients (UGT1A7 gene; UGT1A7_551 Asn129Lys, Genotype Homozygous G/G, Liver Function Abnormality Absent): 96 (35.7%)
n (%) of patients (UGT1A7 gene; UGT1A7_551 Asn129Lys, Genotype Homozygous G/G, Liver Function Abnormality Present): 59 (44.7%)
n (%) of patients (UGT1A7 gene; UGT1A7_551 Asn129Lys, Genotype Homozygous T/T, Liver Function Abnormality Absent): 49 (18.2%)
n (%) of patients (UGT1A7 gene; UGT1A7_551 Asn129Lys, Genotype Homozygous T/T, Liver Function Abnormality Present): 14 (10.6%)
n (%) of patients (UGT1A7 gene; UGT1A7_555 silent or Arg131Lys, Allele A Absent, Liver Function Abnormality Absent): 49 (18.2%)
n (%) of patients (UGT1A7 gene; UGT1A7_555 silent or Arg131Lys, Allele A Absent, Liver Function Abnormality Present): 14 (10.6%)
n (%) of patients (UGT1A7 gene; UGT1A7_555 silent or Arg131Lys, Allele A Present, Liver Function Abnormality Absent): 220 (81.8%)
n (%) of patients (UGT1A7 gene; UGT1A7_555 silent or Arg131Lys, Allele A Present, Liver Function Abnormality Present): 118 (89.4%)
n (%) of patients (UGT1A7 gene; UGT1A7_555 silent or Arg131Lys, Allele C Absent, Liver Function Abnormality Absent): 96 (35.7%)
n (%) of patients (UGT1A7 gene; UGT1A7_555 silent or Arg131Lys, Allele C Absent, Liver Function Abnormality Present): 58 (43.9%)
n (%) of patients (UGT1A7 gene; UGT1A7_555 silent or Arg131Lys, Allele C Present, Liver Function Abnormality Absent): 173 (64.3%)
